Columns and labels:
human 5-HT2B receptors = target: T1, human 5-HT2B receptors (Homo sapiens, UniProt P41595); assay: Binding to the 5-HT2B receptor, [3H]-5-HT, CHO cell line (Method (b)); conditions: human 5-HT2B in CHO cell line, read-out: Ki (2B)
T1 construct: expressed in transfected cells; host or cells: CHO cell line
Protocol: (§1) The binding of compounds of formula (I) to serotonin receptors was determined in vitro by standard methods. The activity of the test compounds was investigated in accordance with the assays given below.
Method (b): For the binding to the 5-HT2B receptor, the 5-HT2B receptors were radiolabeled with [^3H]-5-HT. The affinity of the compounds for human 5-HT2B receptors in a CHO cell line was determined according to the procedure of K. Schmuck, C. Ullmer, P. Engels and H. Lubbert, FEBS Lett., 1994, 342, 85–90.

5-HT2C receptor [1] = target: T2, 5-HT2C receptor (Homo sapiens, UniProt P28335); assay: Functional activity, FLIPR calcium assay, CHO cells expressing human 5-HT2C; type: cell-based; set-up: expressed in transfected cells; host or cells: CHO cells; conditions: for h5-HT2C Rel. Eff.: relative efficacy vs response to 10 μM 5-HT (defined as 100%)
T2 sequence (P28335 33-458): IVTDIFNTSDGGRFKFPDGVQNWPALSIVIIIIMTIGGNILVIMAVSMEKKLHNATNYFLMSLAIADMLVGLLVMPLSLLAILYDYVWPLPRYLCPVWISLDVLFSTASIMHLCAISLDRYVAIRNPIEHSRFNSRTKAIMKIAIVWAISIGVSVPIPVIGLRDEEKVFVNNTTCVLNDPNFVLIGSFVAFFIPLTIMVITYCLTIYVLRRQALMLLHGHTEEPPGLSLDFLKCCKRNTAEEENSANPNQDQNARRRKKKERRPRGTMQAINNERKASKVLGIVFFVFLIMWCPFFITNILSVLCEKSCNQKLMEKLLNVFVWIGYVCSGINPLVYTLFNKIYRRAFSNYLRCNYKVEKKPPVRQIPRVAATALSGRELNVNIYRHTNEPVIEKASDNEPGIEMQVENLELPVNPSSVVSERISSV
Protocol: (§2) The functional activity of compounds of formula (I) was assayed using a Fluorimetric Imaging Plate reader (FLIPR). CHO cells expressing the human 5-HT2C or human 5-HT2A receptors were counted and plated into standard 96 well microtitre plates on the day before testing to give a confluent monolayer. The cells were then dye loaded with the calcium sensitive dye, Fluo-3-AM. Unincorporated dye was removed using an automated cell washer to leave a total volume of 100 μL/well of assay buffer (Hanks balanced salt solution containing 20 mM Hepes and 2.5 mM probenecid). The drug (dissolved in 50 μL of the assay buffer) was added at a rate of 70 μL/sec to each well of the FLIPR 96 well plate during fluorescence measurements. The measurements were taken at 1 sec intervals and the maximum fluorescent signal was measured (approx 10–15 secs after drug addition) and compared with the response produced by 10 μM 5-HT (defined as 100%) to which it was expressed as a percentage response (relative efficacy). Dose response curves were constructed using Graphpad Prism (Graph Software Inc.).

5-HT2A receptor [2] = target: T3, 5-HT2A receptor (Homo sapiens, UniProt P28223); assay: Functional activity, FLIPR calcium assay, CHO cells expressing human 5-HT2A; type: cell-based; set-up: expressed in transfected cells; host or cells: CHO cells; conditions: for EC50: FLIPR, CHO cells expressing human 5-HT2A, read-out: h5-HT2A EC50; for h5-HT2A Rel. Eff.: relative efficacy vs response to 10 μM 5-HT (defined as 100%)
T3 sequence (P28223 whole entry): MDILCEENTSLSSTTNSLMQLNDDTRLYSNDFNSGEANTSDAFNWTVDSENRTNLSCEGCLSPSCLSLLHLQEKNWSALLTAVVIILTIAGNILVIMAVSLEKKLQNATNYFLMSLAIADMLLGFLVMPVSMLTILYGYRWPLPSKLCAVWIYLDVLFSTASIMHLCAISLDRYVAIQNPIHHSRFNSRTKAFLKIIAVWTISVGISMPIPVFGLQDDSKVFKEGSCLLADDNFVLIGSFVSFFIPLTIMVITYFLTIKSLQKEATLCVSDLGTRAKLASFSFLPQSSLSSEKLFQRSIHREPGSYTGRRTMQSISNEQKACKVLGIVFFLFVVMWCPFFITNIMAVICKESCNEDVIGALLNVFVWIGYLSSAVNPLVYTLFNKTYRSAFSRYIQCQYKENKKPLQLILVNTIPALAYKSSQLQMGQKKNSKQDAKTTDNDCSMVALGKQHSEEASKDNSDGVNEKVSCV
Protocol: as §2

5-HT2C receptor [3] = target: T2, 5-HT2C receptor; assay: Binding to the 5-HT2C receptor, [3H]-5-HT, CHO cell line (Method (a)); set-up: expressed in transfected cells; host or cells: CHO cell line
Protocol: as §1
Method (a): For the binding to the 5-HT2C receptor, the 5-HT2C receptors were radiolabeled with [^3H]-5-HT. The affinity of the compounds for 5-HT2C receptors in a CHO cell line was determined according to the procedure of D. Hoyer, G. Engel and H. O. Kalkman, European J. Pharmacol., 1985, 118, 13–23.

5-HT2A receptor [4] = target: T3, 5-HT2A receptor; assay: Binding to the 5-HT2A receptor, [125I]-DOI, CHO cell line (Method (c)); set-up: expressed in transfected cells; host or cells: CHO cell line; conditions: read-out: Ki (2A)
Protocol: as §1
Method (c): For the binding to the 5-HT2A receptor, the 5-HT2A receptors were radiolabeled with [^125I]-DOI. The affinity of the compounds for 5-HT2A receptors in a CHO cell line was determined according to the procedure of D. J. McKenna and S. J. Peroutka, J. Neurosci., 1989, 9, 3482–90.

T1 sequence (P41595 whole entry): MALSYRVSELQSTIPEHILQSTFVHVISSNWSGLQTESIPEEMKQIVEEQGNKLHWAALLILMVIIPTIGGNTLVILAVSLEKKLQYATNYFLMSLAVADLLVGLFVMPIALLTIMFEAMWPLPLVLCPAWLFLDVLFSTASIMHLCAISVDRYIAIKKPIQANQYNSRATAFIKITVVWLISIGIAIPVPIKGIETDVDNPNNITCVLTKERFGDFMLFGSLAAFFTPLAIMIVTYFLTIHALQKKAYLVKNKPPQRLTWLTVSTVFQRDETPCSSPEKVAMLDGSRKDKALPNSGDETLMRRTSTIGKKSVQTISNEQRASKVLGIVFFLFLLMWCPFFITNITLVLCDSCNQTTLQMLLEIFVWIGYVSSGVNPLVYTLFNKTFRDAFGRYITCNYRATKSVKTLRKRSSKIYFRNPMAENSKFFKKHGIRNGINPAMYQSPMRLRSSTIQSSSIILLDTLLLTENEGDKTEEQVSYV

`Cc1c2n(c3nc(Cl)ccc13)[C@H](C)CNC2` [Example 20, (R)-6-Chloro-4,9-dimethyl-1,2,3,4-tetrahydro-2,4a,5-triaza-fluorene] was tested, and the Ki (human 5-HT2B receptors) was 108 nM, the EC50 (5-HT2C receptor [1]) was 7.6 nM and the “h5-HT2C Rel. Eff.” value (5-HT2C receptor [1]) was 93.3%. For the same compound, the EC50 (5-HT2A receptor [2]) was 11.1 nM, the “h5-HT2A Rel. Eff.” value (5-HT2A receptor [2]) was 12.0% and the Ki (5-HT2C receptor [3]) was 5.1 nM. The Ki (5-HT2A receptor [4]) was 178 nM.
With `CCc1ccc2c(n1)N1[C@@H](CNC[C@H]1C)C2` [Example 9, (4R,9aR)-6-Ethyl-4-methyl-1,2,3,4,9,9a-hexahydro-2,4a,5-triaza-fluorene] the Ki (human 5-HT2B receptors) was 271 nM, the EC50 (5-HT2C receptor [1]) was 85.4 nM and the “h5-HT2C Rel. Eff.” value (5-HT2C receptor [1]) was 91.4%. For the same compound, the EC50 (5-HT2A receptor [2]) was 644 nM, the “h5-HT2A Rel. Eff.” value (5-HT2A receptor [2]) was 29.6% and the Ki (5-HT2C receptor [3]) was 16.5 nM. For the same compound, the Ki (5-HT2A receptor [4]) was 212 nM.
